# Results taken from patent publication US9238656B2, “Imidazo[4,5-b]pyridine derivatives as ALK and JAK modulators for the treatment of proliferative disorders” (priority 2012, dated 2016).
# Where a name gives a salt, the structure may show the parent alone.
# What was measured:
# [1] = molecular target: baculovirus-expressed JAK2 kinase (Homo sapiens, UniProt O60674); assay: biochemical; settings: 0.2 μM ATP; read-out: JAK2 Potency
# Procedure, shortened: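 IC50 derived by variable-slope sigmoidal fit of percent inhibition against log compound concentration. Baculovirus-expressed JAK2 (15 ng/mL) phosphorylated a plate-bound biotinylated 15-mer peptide for 20 min at room temperature; detection by time-resolved fluorescence.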
# [2] = molecular target: baculovirus-expressed ALK (Homo sapiens, UniProt Q9UM73); assay: ALK kinase inhibition, TRF/ELISA; assay type: biochemical; settings: read-out: ALK Potency
# baculovirus-expressed ALK, sequence (Q9UM73 19-1620): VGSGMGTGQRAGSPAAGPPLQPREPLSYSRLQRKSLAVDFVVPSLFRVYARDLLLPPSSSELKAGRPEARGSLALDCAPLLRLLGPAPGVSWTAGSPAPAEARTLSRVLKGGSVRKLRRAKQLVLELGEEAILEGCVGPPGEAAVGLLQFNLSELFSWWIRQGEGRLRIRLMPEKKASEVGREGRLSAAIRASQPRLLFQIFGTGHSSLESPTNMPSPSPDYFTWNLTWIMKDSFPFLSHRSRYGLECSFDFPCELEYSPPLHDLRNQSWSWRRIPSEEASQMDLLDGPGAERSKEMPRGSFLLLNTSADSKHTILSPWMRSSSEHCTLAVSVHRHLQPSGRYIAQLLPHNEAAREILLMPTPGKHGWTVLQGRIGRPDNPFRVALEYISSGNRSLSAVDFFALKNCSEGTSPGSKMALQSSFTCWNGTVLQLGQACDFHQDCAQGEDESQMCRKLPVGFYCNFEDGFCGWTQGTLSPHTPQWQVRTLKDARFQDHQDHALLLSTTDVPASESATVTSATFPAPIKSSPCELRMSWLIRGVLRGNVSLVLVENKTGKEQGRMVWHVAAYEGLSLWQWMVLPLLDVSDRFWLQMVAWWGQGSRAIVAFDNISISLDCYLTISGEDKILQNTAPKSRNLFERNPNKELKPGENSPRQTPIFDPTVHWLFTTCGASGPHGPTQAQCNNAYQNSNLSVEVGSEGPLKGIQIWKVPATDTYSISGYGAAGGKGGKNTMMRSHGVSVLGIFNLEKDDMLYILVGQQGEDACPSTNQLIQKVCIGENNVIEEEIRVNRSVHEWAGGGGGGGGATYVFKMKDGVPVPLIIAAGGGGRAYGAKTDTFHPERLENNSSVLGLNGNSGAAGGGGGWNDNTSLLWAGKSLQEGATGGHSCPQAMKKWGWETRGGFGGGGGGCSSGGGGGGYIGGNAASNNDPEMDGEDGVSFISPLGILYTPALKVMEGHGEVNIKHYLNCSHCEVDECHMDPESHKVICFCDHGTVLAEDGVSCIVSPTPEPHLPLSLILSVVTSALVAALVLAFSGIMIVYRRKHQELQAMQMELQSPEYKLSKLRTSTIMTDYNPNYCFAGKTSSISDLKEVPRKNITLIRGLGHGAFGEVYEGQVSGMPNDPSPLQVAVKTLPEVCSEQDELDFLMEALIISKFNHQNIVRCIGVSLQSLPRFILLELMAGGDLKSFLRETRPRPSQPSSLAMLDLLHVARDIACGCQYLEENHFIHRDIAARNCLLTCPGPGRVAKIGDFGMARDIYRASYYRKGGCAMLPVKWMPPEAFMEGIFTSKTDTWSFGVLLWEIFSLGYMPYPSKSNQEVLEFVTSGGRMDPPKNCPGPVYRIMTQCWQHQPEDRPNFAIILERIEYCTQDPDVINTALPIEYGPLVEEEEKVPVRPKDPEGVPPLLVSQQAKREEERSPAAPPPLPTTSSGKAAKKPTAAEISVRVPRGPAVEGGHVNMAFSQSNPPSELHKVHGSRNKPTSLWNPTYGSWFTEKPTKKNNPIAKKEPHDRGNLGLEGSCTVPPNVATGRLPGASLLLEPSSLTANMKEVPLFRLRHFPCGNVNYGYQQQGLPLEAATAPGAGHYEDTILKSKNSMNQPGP
# Procedure, shortened: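 Eu-PT66 anti-phosphotyrosine TRF read-out measured phosphorylation of plate-bound GST-PLC-γ (coated at 10 μg/mL). The phosphorylation was driven by 30 ng/mL ALK for 15 minutes at 37° C.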
# baculovirus-expressed JAK2 kinase, sequence (O60674 whole entry): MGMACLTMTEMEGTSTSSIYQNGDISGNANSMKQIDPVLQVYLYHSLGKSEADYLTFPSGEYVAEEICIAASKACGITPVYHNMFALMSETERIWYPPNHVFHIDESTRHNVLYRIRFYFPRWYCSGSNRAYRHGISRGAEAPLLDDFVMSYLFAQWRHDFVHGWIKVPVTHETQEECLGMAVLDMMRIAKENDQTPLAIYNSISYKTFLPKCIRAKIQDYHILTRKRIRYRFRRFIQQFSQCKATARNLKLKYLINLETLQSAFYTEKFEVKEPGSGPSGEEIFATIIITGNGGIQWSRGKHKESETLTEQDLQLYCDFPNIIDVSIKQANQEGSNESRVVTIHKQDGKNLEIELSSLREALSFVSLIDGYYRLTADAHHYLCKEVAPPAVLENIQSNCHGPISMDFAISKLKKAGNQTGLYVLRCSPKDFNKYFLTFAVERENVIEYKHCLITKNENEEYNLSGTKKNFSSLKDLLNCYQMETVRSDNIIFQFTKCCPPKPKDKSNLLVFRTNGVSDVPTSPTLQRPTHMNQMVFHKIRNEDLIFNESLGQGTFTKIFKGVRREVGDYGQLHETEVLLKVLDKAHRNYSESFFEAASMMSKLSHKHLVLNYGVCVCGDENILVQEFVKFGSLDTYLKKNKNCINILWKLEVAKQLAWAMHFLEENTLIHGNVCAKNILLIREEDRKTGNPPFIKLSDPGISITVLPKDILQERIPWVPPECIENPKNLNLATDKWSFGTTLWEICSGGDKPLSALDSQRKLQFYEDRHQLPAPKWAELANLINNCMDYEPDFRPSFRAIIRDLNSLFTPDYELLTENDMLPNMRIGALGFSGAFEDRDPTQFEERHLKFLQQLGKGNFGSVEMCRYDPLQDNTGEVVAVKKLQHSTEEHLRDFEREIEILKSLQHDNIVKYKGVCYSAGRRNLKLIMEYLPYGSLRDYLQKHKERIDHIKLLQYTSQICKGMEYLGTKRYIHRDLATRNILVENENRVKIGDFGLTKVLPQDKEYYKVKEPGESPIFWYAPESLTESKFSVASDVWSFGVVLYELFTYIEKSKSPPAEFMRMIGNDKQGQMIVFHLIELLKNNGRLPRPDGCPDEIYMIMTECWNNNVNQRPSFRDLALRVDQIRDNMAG
IC50 [1],melting point,IC50 [2],SMILES
100 to 1000 nM,160 °C,< 100 nM,"COc1ccncc1-c1nc2c(N[C@H]3[C@@H](C(N)=O)[C@@H]4C=C[C@H]3C4)c(Br)cnc2[nH]1 [Compound CIII, (1S,2S,3R,4R)-3-[6-Bromo-2-(4-methoxy-pyridin-3-yl)-3H-imidazo[4,5-b]pyridin-7-ylamino]-bicyclo[2.2.1]hept-5-ene-2-carboxylic acid amide]"
< 100 nM,293 to 295 °C,< 100 nM,"Cn1cccc1-c1nc2c(N[C@H]3[C@@H](C(N)=O)[C@@H]4C=C[C@H]3C4)c(Br)cnc2[nH]1 [Compound CIX, (1S,2S,3R,4R)-3-[6-Bromo-2-(1-methyl-1H-pyrrol-2-yl)-3H-imidazo[4,5-b]pyridin-7-ylamino]-bicyclo[2.2.1]hept-5-ene-2-carboxylic acid amide]"
< 100 nM,209 to 211 °C,< 100 nM,"COc1cc(C2CCN(C[C@@H](O)CO)CC2)ccc1-c1nc2c(N[C@H]3[C@@H](C(N)=O)[C@@H]4C=C[C@H]3C4)c(Cl)cnc2[nH]1 [Compound CXVIII, (1S,2S,3R,4R)-3-(6-Chloro-2-{4-[1-((R)-2,3-dihydroxy-propyl)-piperidin-4-yl]-2-methoxy-phenyl}-3H-imidazo[4,5-b]pyridin-7-ylamino)-bicyclo[2.2.1]hept-5-ene-2-carboxylic acid amide]"
–,217 to 219 °C,–,"NC(=O)[C@@H]1[C@H](Nc2c(Br)cnc3[nH]c(-c4ccc(CN5CCOCC5)cc4)nc23)[C@H]2C=C[C@@H]1C2 (as salt: sodium) [Compound LXXX, (1S,2S,3R,4R)-3-[6-Bromo-2-(4-morpholin-4-ylmethyl-phenyl)-3H-imidazo[4,5-b]pyridin-7-ylamino]-bicyclo[2.2.1]hept-5-ene-2-carboxylic acid amide]"
< 100 nM,215 to 218 °C,–,"CN1CCN(c2ccc(-c3nc4c(N[C@H]5[C@@H](C(N)=O)[C@@H]6C=C[C@H]5C6)c(Br)cnc4[nH]3)cc2)CC1 [Compound LXXVIII, (1S,2S,3R,4R)-3-{6-Bromo-2-[4-(4-methyl-piperazin-1-yl)-phenyl]-3H-imidazo[4,5-b]pyridin-7-ylamino}-bicyclo[2.2.1]hept-5-ene-2-carboxylic acid amide]"
< 100 nM,–,< 100 nM,"COc1cccc(-c2nc3c(N[C@H]4[C@@H](C(N)=O)[C@@H]5C=C[C@H]4C5)c(Cl)cnc3[nH]2)n1 [Compound CXXIV, (1S,2S,3R,4R)-3-[6-Chloro-2-(6-methoxy-pyridin-2-yl)-3H-imidazo[4,5-b]pyridin-7-ylamino]-bicyclo[2.2.1]hept-5-ene-2-carboxylic acid amide]"
< 100 nM,–,100 to 1000 nM,"N#Cc1cccc(-c2nc3c(N[C@H]4[C@@H](C(N)=O)[C@@H]5C=C[C@H]4C5)c(Br)cnc3[nH]2)c1 [Compound CXLVI, (1S,2S,3R,4R)-3-[6-Bromo-2-(3-cyano-phenyl)-3H-imidazo[4,5-b]pyridin-7-ylamino]-bicyclo[2.2.1]hept-5-ene-2-carboxylic acid amide]"
> 10000 nM,–,100 to 1000 nM,"COc1ccc(CN2CCOCC2)cc1-c1nc2c(N[C@@H]3CCCC[C@H]3NS(C)(=O)=O)c(Cl)cnc2[nH]1 [Compound LXXIV, N-{(1R,2R)-2-[6-Chloro-2-(2-methoxy-5-morpholin-4-ylmethyl-phenyl)-3H-imidazo[4,5-b]pyridine-7-ylamino]-cyclohexyl}-methanesulfonamide]"
< 100 nM,–,1000 to 10000 nM,"NC(=O)[C@@H]1[C@H](Nc2c(Cl)cnc3[nH]c(-c4ccc(N5CCOCC5)cc4)nc23)[C@H]2CC[C@@H]1O2 [Compound CCIV, (1S,2R,3S,4R)-3-(6-chloro-2-(4-morpholinophenyl)-3H-imidazo[4,5-b]pyridin-7-ylamino)-7-oxabicyclo[2.2.1]heptane-2-carboxamide]"
< 100 nM,–,< 100 nM,"COc1cc(C2CCN(C[C@H](C)O)CC2)ccc1-c1nc2c(N[C@H]3[C@@H](C(N)=O)[C@@H]4C=C[C@H]3C4)c(Cl)cnc2[nH]1 [Compound XLV, (1S,2S,3R,4R)-3-(6-Chloro-2-{4-[1-((S)-2-hydroxypropyl)-piperidin-4-yl]-2-methoxyphenyl}-3H-imidazo[4,5-b]pyridine-7-ylamino)-bicyclo[2.2.1]hept-5-ene-2-carboxylic acid amide]"
< 100 nM,–,< 100 nM,"CN1CCN(Cc2ccc(-c3nc4c(N[C@@H]5CCCC[C@H]5NS(C)(=O)=O)c(Cl)cnc4[nH]3)cc2)CC1 [CCLIV, N-((1R,2R)-2-{6-Chloro-2-[4-(4-methyl-piperazin-1-ylmethyl)-phenyl]-3H-imidazo[4,5-b]pyridin-7-ylamino}-cyclohexyl)-methanesulfonamide]"
< 100 nM,–,< 100 nM,"NC(=O)[C@@H]1[C@H](Nc2c(Cl)cnc3[nH]c(-c4sc(N5CCOCC5)nc4Cl)nc23)[C@H]2C=C[C@@H]1C2 [Compound CLX, (1S,2S,3R,4R)-3-[6-Chloro-2-(4-chloro-2-morpholin-4-yl-thiazol-5-yl)-3H-imidazo[4,5-b]pyridin-7-ylamino]-bicyclo[2.2.1]hept-5-ene-2-carboxylic acid amide]"
< 100 nM,–,< 100 nM,"COc1cc(N(C)C)ccc1-c1nc2c(N[C@H]3[C@@H](C(N)=O)[C@@H]4C=C[C@H]3C4)c(Cl)cnc2[nH]1 [Compound XVII, (1S,2S,3R,4R)-3-[6-Chloro-2-(4-dimethylamino-2-methoxy-phenyl)-3H-imidazo[4,5-b]pyridine-7-ylamino]-bicyclo[2.2.1]hept-5-ene-2-carboxylic acid amide]"
< 100 nM,–,< 100 nM,"CN1CCN(c2nc(Cl)c(-c3nc4c(N[C@H]5[C@@H](C(N)=O)[C@@H]6C=C[C@H]5C6)c(Cl)cnc4[nH]3)s2)CC1 [Compound CCXII, (1S,2S,3R,4R)-3-(6-chloro-2-(4-chloro-2-(4-methylpiperazin-1-yl)thiazol-5-yl)-3H-imidazo[4,5-b]pyridin-7-ylamino)bicyclo[2.2.1]hept-5-ene-2-carboxamide]"
< 100 nM,–,100 to 1000 nM,"NC(=O)CN1CCC(n2cc(-c3nc4c(N[C@H]5[C@@H](C(N)=O)[C@@H]6C=C[C@H]5C6)c(Cl)cnc4[nH]3)cn2)CC1 [Compound LXVI, (1S,2S,3R,4R)-3-{2-[1-(1-Carbamoylmethyl-piperidin-4-yl)-1H-pyrazol-4-yl]-6-chloro-3H-imidazo[4,5-b]pyridine-7-ylamino}-bicyclo[2.2.1]hept-5-ene-2-carboxylic acid amide, trifluoroacetic acid salt]"
100 to 1000 nM,–,100 to 1000 nM,"COc1cc(N2CCOCC2)ccc1-c1nc2c(NC34CCC(C)(C(O)C3)C4(C)C)c(Cl)cnc2[nH]1 (stereo not drawn) [Compound CCIII, 4-(6-chloro-2-(2-methoxy-4-morpholinophenyl)-3H-imidazo[4,5-b]pyridin-7-ylamino)-1,7,7-trimethylbicyclo[2.2.1]heptan-2-ol]"
< 100 nM,283 to 284 °C,–,"NC(=O)[C@@H]1[C@H](Nc2c(Br)cnc3[nH]c(-c4ccc(N5CCOCC5)cc4)nc23)[C@H]2C=C[C@@H]1C2 [Compound LXXIX, (1S,2S,3R,4R)-3-[6-Bromo-2-(4-morpholin-4-yl-phenyl)-3H-imidazo[4,5-b]pyridin-7-ylamino]-bicyclo[2.2.1]hept-5-ene-2-carboxylic acid amide]"
< 100 nM,–,100 to 1000 nM,"NC(=O)[C@@H]1[C@H](Nc2c(Cl)cnc3[nH]c(-c4ccc(O)cc4)nc23)[C@H]2C=C[C@@H]1C2 [Compound CCXXXIV, (1S,2S,3R,4R)-3-(6-chloro-2-(4-hydroxyphenyl)-3H-imidazo[4,5-b]pyridin-7-ylamino)bicyclo[2.2.1]hept-5-ene-2-carboxamide]"
1000 to 10000 nM,–,1000 to 10000 nM,"COc1ccc(-c2nc3c(N[C@H]4[C@@H](C(N)=O)[C@@H]5C=C[C@H]4C5)c(Cl)cnc3[nH]2)c(C2CCN(C[C@H](C)O)CC2)c1 [Compound XXXII, (1S,2S,3R,4R)-3-(6-Chloro-2-{2-[1-((S)-2-hydroxypropyl)-piperidin-4-yl]-4-methoxy-phenyl}-3H-imidazo[4,5-b]pyridin-7-ylamino)-bicyclo[2.2.1]hept-5-ene-2-carboxylic acid amide]"
100 to 1000 nM,–,< 100 nM,"COc1cc(CN2CCOCC2)ccc1-c1nc2c(N[C@H]3[C@@H](CO)[C@@H]4C=C[C@H]3C4)c(Cl)cnc2[nH]1 [Compound LII, {(diexo)-3-[6-Chloro-2-(2-methoxy-4-morpholin-4-ylmethylphenyl)-3H-imidazo[4,5-b]pyridine-7-ylamino]-bicyclo[2.2.1]hept-5-en-2-yl}-methanol]"
< 100 nM,–,< 100 nM,"NC(=O)[C@@H]1[C@H](Nc2c(Cl)cnc3[nH]c(-c4cccc(CN5CCOCC5)c4)nc23)[C@H]2C=C[C@@H]1C2 [Compound XVI, (1S,2S,3R,4R)-3-[6-Chloro-2-(3-morpholin-4-ylmethyl-phenyl)-3H-imidazo[4,5-b]pyridin-7-ylamino]-bicyclo[2.2.1]hept-5-ene-2-carboxylic acid amide trifluoroacetic acid salt]"
< 100 nM,–,100 to 1000 nM,"NC(=O)[C@@H]1[C@H](Nc2c(Cl)cnc3[nH]c(-c4ccnc(N5CCOCC5)c4)nc23)[C@H]2C=C[C@@H]1C2 [Compound CXXVI, (1S,2S,3R,4R)-3-[6-Chloro-2-(2-morpholin-4-yl-pyridin-4-yl)-3H-imidazo[4,5-b]pyridin-7-ylamino]-bicyclo[2.2.1]hept-5-ene-2-carboxylic acid amide]"
100 to 1000 nM,–,> 10000 nM,"Cn1cc(-c2nc3c(N[C@H]4[C@@H](C(N)=O)[C@@H]5CC[C@H]4O5)c(Cl)cnc3[nH]2)cn1 [Compound CCV, (1S,2R,3S,4R)-3-(6-chloro-2-(1-methyl-1H-pyrazol-4-yl)-3H-imidazo[4,5-b]pyridin-7-ylamino)-7-oxabicyclo[2.2.1]heptane-2-carboxamide]"
